Laboratory results taken from ChEMBL document CHEMBL1201862, “PubChem BioAssay data set” (2004).
Calls of active or inactive are those of the source.

What was measured:
[1] = ZM109 Env clade C HIV-1 fusion inhibitors, dose response, HeLa effector, CEM target cells, luciferase, cherry-pick (AID 652058); type: functional, cell-based
[2] = inhibitors of HIV Env-driven cell fusion, dose response, cherry-pick (AID 652057); type: functional, cell-based
[3] = off-target signal loss in HeLa-CEM21 co-culture – HeLa F-luc CTL cells, cherry-picked, counter-screen for HIV-1 Env fusion inhibitor project, dose response (AID 652040); type: functional, cell-based;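 further: potency for signal decrease marking cytotoxic or nonspecific inhibition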
[4] = inhibitors of clade B AD8 Env fusion, dose response, cell-based, cherry-pick (AID 652062); type: functional;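 further: luciferase signal from cell-cell fusion driven by HIV-1 clade B AD8 Env; potency is for inhibitors of fusion seen as a drop in luminescence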
Fatty acid synthase [5] = target: T1, Fatty acid synthase (Homo sapiens, UniProt P49327); test: FAS thioesterase domain inhibitors, dose response, biochemical, kinetic fluorescence intensity (AID 624326); type: functional;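 further: rate of fluorescence rise from hydrolysis of a fluorogenic O-methyl fluorescein ester substrate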
T1 sequence (P49327 whole entry, the tested form may be a part): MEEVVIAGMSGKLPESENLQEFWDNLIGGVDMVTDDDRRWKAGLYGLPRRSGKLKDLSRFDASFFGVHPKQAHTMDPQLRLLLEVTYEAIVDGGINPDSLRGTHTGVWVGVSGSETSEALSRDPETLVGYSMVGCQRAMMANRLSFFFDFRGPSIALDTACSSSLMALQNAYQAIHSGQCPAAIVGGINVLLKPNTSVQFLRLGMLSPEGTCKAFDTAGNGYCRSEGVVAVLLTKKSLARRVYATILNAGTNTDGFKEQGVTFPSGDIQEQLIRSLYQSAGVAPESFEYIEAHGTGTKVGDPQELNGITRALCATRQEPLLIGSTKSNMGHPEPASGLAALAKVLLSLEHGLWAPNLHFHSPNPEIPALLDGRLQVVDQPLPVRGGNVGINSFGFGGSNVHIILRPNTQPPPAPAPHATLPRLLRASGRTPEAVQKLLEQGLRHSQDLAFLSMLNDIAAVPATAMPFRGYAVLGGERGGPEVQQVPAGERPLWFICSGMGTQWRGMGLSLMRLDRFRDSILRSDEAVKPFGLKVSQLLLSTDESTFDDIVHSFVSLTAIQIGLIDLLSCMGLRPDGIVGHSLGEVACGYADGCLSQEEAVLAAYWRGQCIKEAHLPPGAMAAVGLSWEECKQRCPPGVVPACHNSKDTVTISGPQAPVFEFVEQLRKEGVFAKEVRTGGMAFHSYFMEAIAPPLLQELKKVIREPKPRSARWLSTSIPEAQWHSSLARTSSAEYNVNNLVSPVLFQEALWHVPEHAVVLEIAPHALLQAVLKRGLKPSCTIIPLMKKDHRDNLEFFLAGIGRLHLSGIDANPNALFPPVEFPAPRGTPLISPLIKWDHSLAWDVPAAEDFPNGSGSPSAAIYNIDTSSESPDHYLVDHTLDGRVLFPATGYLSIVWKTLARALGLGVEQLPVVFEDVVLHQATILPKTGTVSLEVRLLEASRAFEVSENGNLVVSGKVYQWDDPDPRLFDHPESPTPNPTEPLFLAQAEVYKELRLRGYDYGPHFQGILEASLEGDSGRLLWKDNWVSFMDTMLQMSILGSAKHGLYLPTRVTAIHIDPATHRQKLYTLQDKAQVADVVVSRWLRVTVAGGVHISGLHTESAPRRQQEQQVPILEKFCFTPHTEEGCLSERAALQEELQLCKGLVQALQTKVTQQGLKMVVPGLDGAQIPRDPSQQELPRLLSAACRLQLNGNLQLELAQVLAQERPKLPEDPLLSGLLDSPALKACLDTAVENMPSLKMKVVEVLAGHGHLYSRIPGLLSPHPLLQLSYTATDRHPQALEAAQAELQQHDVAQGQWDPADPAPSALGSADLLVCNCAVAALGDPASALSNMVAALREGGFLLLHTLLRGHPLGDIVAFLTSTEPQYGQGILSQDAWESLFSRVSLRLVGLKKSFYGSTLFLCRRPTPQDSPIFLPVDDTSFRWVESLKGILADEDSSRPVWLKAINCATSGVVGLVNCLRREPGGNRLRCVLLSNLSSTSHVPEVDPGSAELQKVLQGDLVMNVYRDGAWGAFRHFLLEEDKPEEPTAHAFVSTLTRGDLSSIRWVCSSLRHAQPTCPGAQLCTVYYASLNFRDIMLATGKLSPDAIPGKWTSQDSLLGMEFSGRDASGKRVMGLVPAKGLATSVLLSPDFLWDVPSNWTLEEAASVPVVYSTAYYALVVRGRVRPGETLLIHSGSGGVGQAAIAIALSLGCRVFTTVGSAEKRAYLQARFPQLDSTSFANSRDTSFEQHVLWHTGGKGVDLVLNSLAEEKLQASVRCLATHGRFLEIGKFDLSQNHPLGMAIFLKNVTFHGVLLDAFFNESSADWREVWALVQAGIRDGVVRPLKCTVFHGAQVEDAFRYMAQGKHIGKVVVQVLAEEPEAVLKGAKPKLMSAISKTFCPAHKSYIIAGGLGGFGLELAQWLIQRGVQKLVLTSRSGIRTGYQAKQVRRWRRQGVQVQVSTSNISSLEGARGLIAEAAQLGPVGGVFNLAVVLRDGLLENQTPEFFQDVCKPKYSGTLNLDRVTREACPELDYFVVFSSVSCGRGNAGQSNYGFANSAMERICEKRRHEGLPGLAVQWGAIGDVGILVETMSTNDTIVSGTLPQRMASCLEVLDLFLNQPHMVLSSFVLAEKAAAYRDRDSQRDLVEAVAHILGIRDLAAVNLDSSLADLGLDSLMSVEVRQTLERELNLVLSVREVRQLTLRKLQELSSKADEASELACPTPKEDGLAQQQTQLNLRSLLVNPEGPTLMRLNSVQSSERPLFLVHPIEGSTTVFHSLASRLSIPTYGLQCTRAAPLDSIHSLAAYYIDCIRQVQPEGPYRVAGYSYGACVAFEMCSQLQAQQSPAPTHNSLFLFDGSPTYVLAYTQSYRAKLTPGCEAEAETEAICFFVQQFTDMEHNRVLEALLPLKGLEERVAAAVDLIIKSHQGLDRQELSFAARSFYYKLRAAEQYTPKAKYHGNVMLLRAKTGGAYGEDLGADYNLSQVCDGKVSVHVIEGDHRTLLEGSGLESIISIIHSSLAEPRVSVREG

Fatty acid synthase [6] = target: T1, Fatty acid synthase; test: FAS thioesterase domain inhibitors, dose response, biochemical, endpoint fluorescence intensity, uHTS hits (AID 624327); type: functional;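 further: fluorescence from hydrolysis of an O-methyl fluorescein acyl ester substrate by the enzyme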
[7] = target: Heat shock protein HSP 90-alpha (Homo sapiens, UniProt P07900); type: functional, organism-based
[8] = target: T2, Small ubiquitin-related modifier 1 (Homo sapiens, UniProt P63165); test: inhibitors of SUMO1 peptide binding, dose response, biochemical, fluorescence polarization, uHTS hits (AID 624382); type: functional; conditions: read-out: IC50_Mean
T2 sequence (P63165 whole entry): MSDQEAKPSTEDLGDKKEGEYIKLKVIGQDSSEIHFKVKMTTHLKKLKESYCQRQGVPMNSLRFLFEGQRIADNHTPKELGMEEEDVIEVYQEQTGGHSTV

[9] = target: T2, Small ubiquitin-related modifier 1; test: inhibitors of SUMO1 partner interactions, dose response, biochemical, FRET (AID 624383); type: functional; conditions: read-out: IC50_Mean
[10] = HEp-2 cell cytotoxicity, dose response, cytotoxicity control for RSV inhibitor project, HTS (AID 2410); type: functional; conditions: human respiratory syncytial virus
Vero [11] = test: cells; type: functional; conditions: Chlorocebus sabaeus
[12] = target: T3, Microphthalmia-associated transcription factor (Homo sapiens, UniProt O75030); test: TRPM1 promoter luciferase signal decrease, dose response, MITF inhibitor project, cell-based, SK-MEL-5, cherry-picked, set 3 (AID 493073); type: functional
T3 sequence (O75030 whole entry): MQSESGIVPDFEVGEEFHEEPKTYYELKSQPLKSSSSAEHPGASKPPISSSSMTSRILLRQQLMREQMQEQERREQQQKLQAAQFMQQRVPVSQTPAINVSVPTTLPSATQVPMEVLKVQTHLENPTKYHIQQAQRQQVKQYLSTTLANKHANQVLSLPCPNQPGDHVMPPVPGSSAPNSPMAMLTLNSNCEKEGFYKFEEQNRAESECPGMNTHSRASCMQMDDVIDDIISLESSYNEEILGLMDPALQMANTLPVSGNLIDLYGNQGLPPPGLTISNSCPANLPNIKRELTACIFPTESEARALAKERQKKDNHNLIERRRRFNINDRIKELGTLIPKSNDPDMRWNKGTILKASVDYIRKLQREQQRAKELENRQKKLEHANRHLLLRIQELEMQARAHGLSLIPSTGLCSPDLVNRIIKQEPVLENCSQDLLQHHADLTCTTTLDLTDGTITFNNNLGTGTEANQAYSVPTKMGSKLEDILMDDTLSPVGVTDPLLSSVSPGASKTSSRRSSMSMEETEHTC

Vero [13] = test: cells; type: functional, cell-based; conditions: Chlorocebus sabaeus
[14] = target: T4, Carboxy-terminal domain RNA polymerase II polypeptide A small phosphatase 1 (Homo sapiens, UniProt Q9GZU7); test: inhibitors of CTDSP1, concentration-response testing, biochemical assay, absorbance-based, actives from ultra-high-throughput screening (AID 540297); type: functional
T4 sequence (Q9GZU7 whole entry): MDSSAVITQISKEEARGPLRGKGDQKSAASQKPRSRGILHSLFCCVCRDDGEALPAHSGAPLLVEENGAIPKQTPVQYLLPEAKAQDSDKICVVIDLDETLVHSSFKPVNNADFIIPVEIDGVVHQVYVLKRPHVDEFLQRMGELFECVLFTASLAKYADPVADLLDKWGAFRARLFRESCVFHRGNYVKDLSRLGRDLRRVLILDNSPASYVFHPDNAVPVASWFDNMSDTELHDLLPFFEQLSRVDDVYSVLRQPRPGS

cells [15] = type: functional, cell-based
cells [16] = type: functional, cell-based; remark: listed apart in the source
cells [17] = type: functional, cell-based; remark: listed apart in the source
cells [18] = type: functional, cell-based; remark: listed apart in the source
Cytochrome P450 3A4 = Cytochrome P450 3A4 (Homo sapiens, UniProt P08684); conditions: Potency;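 further: confirmatory qHTS run detecting inhibitors and substrates of CYP3A4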
Chain of Cytochrome P450 3A4 (P08684 whole entry): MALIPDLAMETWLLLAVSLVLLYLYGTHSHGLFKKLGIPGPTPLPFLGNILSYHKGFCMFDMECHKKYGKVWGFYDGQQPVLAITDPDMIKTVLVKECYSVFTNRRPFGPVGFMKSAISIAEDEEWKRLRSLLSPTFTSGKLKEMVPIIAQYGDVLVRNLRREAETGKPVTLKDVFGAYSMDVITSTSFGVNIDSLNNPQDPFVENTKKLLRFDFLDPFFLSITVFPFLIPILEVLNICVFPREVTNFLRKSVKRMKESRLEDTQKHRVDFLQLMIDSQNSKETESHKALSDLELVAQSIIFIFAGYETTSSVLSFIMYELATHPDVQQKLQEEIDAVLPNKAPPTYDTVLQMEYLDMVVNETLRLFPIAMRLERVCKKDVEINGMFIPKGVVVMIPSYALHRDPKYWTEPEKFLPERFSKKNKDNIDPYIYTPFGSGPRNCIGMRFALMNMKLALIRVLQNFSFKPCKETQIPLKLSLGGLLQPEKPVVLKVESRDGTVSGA

Large T antigen = Large T antigen (Simian virus 40, UniProt P03070); type: functional, Betapolyomavirus macacae;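 further: Confirmatory-stage PubChem screen for compounds that inhibit SV40 T antigen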
Chain of Large T antigen (P03070 whole entry): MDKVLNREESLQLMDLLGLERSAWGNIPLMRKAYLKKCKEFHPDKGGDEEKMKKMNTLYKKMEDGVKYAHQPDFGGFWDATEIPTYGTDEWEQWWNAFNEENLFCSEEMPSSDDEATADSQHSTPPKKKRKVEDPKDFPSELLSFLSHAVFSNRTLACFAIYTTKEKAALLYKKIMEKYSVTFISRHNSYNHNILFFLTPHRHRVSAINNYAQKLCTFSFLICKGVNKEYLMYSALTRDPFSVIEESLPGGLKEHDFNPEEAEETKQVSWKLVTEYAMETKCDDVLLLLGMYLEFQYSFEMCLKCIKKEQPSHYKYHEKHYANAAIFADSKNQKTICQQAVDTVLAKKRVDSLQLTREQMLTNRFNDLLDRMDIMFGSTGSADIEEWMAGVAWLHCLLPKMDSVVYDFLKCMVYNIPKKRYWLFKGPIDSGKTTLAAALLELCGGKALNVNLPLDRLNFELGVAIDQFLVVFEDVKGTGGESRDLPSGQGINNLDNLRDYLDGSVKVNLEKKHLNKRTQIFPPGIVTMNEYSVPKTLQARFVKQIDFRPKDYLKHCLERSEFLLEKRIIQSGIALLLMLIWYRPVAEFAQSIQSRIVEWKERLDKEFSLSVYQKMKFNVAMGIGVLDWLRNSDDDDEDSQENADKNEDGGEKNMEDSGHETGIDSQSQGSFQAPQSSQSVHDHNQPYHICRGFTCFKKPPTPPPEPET

Genome polyprotein = Genome polyprotein (dengue virus type 2, UniProt P29990); test: Dengue-2 NS5 methyltransferase inhibitors, primary screen, biochemical, confirmation dose response (AID 588689); type: functional
Chain of Genome polyprotein (P29990 2492-3391 limits assumed): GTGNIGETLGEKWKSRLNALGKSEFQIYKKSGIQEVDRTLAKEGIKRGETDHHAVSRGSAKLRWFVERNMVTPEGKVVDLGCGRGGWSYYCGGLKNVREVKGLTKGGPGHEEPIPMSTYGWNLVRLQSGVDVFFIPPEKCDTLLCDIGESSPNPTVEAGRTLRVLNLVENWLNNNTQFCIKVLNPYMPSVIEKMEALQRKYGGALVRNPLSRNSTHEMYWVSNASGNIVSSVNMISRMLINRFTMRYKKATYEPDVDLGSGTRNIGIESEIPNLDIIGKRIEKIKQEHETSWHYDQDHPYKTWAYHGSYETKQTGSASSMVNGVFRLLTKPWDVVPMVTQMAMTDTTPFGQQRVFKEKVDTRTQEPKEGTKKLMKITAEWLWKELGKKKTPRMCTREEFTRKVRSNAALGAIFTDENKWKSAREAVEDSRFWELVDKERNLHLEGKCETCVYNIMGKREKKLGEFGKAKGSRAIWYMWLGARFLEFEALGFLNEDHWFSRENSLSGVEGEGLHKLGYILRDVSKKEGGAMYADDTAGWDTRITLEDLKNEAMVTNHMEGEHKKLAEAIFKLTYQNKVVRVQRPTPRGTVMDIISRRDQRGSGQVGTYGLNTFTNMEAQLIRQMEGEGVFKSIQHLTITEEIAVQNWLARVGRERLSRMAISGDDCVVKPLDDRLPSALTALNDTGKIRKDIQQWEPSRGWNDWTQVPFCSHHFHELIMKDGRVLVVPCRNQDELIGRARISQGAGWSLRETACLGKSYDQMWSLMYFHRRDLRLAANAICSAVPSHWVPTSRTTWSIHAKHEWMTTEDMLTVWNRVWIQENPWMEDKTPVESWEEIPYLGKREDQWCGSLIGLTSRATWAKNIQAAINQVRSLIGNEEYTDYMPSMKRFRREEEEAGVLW

COc1cc(OC)cc(C(=O)N[C@H](C(=O)NCCc2c[nH]c3ccccc23)C(C)C)c1
AC50 [1]: 16.8 µM (active) | AC50 [2]: 11 µM (active) | AC50 [3]: 35.6 µM (active)

CC(=O)Nc1sc2c(c1C(c1ccc(F)cc1)N1CCOCC1)CCCC2 (stereo unspecified)
AC50 [1]: 11.6 µM (active) | AC50 [2]: 5.3 µM (active) | AC50 [3]: > 70 µM (inactive) | AC50 [4]: 32.8 µM (active)

CC(C)OC(=O)[C@H]1[C@H](c2ccc(Cl)cc2)[C@@](C#N)(C(N)=O)[C@@H]2C=CC(C(N)=O)=CN21
IC50 (Fatty acid synthase [5]): 7.56 µM (active) | IC50 (Fatty acid synthase [6]): 10.9 µM (active)

Oc1ccc(-c2nc3ccc4ccccc4c3c3c2CCC3)cc1O
AC50 [7]: 6.97 µM (active)

CCC(CO)Oc1cc(NC(=O)c2ccccc2C)c2ncn(C(C)C)c2c1 (stereo unspecified)
IC50 [8]: > 66.6 µM (inactive) | IC50 [9]: 17.6 µM (active)

O=C1CC(C(=O)N(CC2CCCO2)C(C(=O)NC2CCCCC2)c2ccncc2)CS1 (stereo unspecified)
AC50 [1]: 6.85 µM (active) | AC50 [2]: 7.23 µM (active) | AC50 [3]: 30.2 µM (active) | AC50 [4]: 37.8 µM (active)

Cc1ccc(Cl)cc1Nc1nc(-c2sc(NC(=O)C(C)(C)C)nc2C)cs1
IC50 [8]: > 66.6 µM (inactive) | CC50 [10]: 21.4 µM (active) | IC50 [9]: 9.1 µM (active)

CCN(CC)S(=O)(=O)c1ccc(N2CCCC2)c(NC(=O)c2ccc([N+](=O)[O-])o2)c1
CC50 (Vero [11]): 17.8 µM (active) | AC50 [12]: 3.18 µM (active) | IC50 (Vero [13]): > 25 µM (active)

O=C(C[C@H]1C[C@H](C(=O)N2CCOCC2)[C@@]2(CCC3CCCC3)c3[nH]c4cc(-c5ccco5)ccc4c3CCN2C1=O)NCCN1CCOCC1
IC50 (Fatty acid synthase [5]): 3.76 µM (active) | IC50 (Fatty acid synthase [6]): 6.62 µM (active)

COc1ccc(OC)c(NC(=O)CSc2ncnc3sc(C)cc23)c1
IC50 [14]: 5.46 µM (active)

CC(CNC(=O)C1CCCCC1C(=O)O)c1ccccc1 (stereo unspecified)
EC50 (cells [15]): > 29.9 µM (inactive) | IC50 (cells [16]): > 29.9 µM (inactive)

CCCCCCCCCCCCCC(=O)NO
AC50 [7]: 2.71 µM (active)

COc1cccc(/C=N/NC(=O)CSc2ccccc2C)c1O
EC50 (cells [17]): 30.4 µM (active) | EC50 (cells [18]): 52.4 µM (active)

O=C(NCCN1CCC(n2c(O)nc3ccccc32)CC1)c1cccc2c1-c1ccccc1C2=O
IC50 [8]: > 66.6 µM (inactive) | IC50 [9]: 17.9 µM (active)

CCc1nc2c(OCc3ccc(Cl)cc3)cccn2c1N(C=O)Cc1ccc(OC)cc1
IC50 (Fatty acid synthase [5]): 9.84 µM (active) | IC50 (Fatty acid synthase [6]): 8.01 µM (active)

CCCCCCN(C(=O)CCCCCN1C(=O)NC(c2ccc(-c3ccccc3)cc2)C(C(=O)OCc2ccccc2)=C1C)C(C(=O)NCCCC)c1ccccc1 (stereo unspecified)
AC50 (Cytochrome P450 3A4): 2 µM (inconclusive)

CC(=O)c1ccc(N2/C(=N/C(=O)COc3ccccc3)SC3CS(=O)(=O)CC32)cc1 (stereo unspecified)
EC50 (cells [17]): > 350 µM (not active) | EC50 (cells [18]): > 350 µM (not active)

O=C(N/N=C(\c1ccccc1)c1cccnc1)c1cc(O)ccc1O
IC50 (Large T antigen): 6.14 µM (active)

N#Cc1c(N)sc(=S)c2c1CCCCC2
IC50 (Genome polyprotein): > 100 µM (active) | IC50 (Large T antigen): 46.4 µM (active)

Nc1ccc(-c2ccc(N)c(O)c2)cc1O
AC50 (Cytochrome P450 3A4): 31.6 µM (inconclusive)
